Experimental data published in ChEMBL document CHEMBL5724558, “Image-based profiling of drug vulnerabilities in CRC organoids” (2024).
“And” between values parts separate entries of the source, which are not always exact repeats. Identical values can stand only once. Square brackets hold non-standard residues; d marks the D form. Peptide text beside a SMILES is read from it. Arg(Me) = CNC(=N)NCCC[C@H](N)C(=O)O; d4Pal = N[C@H](Cc1ccncc1)C(=O)O; azaGly = NNC(=O)O

Assays:
Assay type in all cases: functional, Homo sapiens
Set-up in all cases: dose or concentration left out as unconfirmed
Colon cancer organoid [1] = test: Image-based profiling of donated chemical probes and chemogenomic kinase set in O21 CRC organoid. Image analysis is performed on the sum area metric, and the data were normalized to the DMSO control. After imaging the organoid viability is measured using the OneGloEX Luciferase Assay System. The normalized viability data and sum area are reported.
Colon cancer organoid [2] = test: Image-based profiling of donated chemical probes and chemogenomic kinase set in O09 CRC organoid. Image analysis is performed on the sum area metric, and the data were normalized to the DMSO control. After imaging the organoid viability is measured using the OneGloEX Luciferase Assay System. The normalized viability data and sum area are reported.
Colon cancer organoid [3] = test: Image-based profiling of donated chemical probes and chemogenomic kinase set in O06 CRC organoid. Image analysis is performed on the sum area metric, and the data were normalized to the DMSO control. After imaging the organoid viability is measured using the OneGloEX Luciferase Assay System. The normalized viability data and sum area are reported.

Row | Compound | Cell Viability (Colon cancer organoid [1]; Replication number 1) | Cell Viability (Colon cancer organoid [1]; Replication number 2) | Cell Viability (Colon cancer organoid [2]; Replication number 1) | Cell Viability (Colon cancer organoid [2]; Replication number 2) | Cell Viability (Colon cancer organoid [3]; Replication number 1) | Cell Viability (Colon cancer organoid [3]; Replication number 2)
1 | CNC(=O)c1cc(C(=O)NC2CC2)cn(Cc2ccccc2)c1=O [GSK620] | 98.0477% and 88.9414% | 114.221% and 102.991% | 52.8448% and 80.6552% | 55.7609% and 83.862% | 87.0029% and 102.753% | 87.2683% and 118.693%
2 | Cc1sc2c(c1C)C(c1ccc(Cl)cc1)=N[C@H](CC(=O)OC(C)(C)C)c1nnc(C)n1-2 | 103.643% and 116.982% | 106.671% and 110.621% | 84.3348% and 91.1128% | 66.0131% and 88.6601% | 124.069% and 114.282% | 126.933% and 90.5736%
3 | C[C@H](NC(=O)Nc1cc2[nH]ncc2c(CO)n1)c1ccccn1 [ERKi-NC] | 112.403% and 96.6365% | 96.9008% and 86.2245% | 84.2492% and 86.249% | 90.2054% and 105.732% | 123.043% and 110.304% | 54.2126% and 97.1276%
4 | CCOC(=O)c1c(/C(C#N)=C\N)c2ccc(Cl)c(Cl)c2n1C | 124.932% and 127.137% | 116.619% and 130.014% | 79.2888% and 103.726% | 80.6301% and 101.308% | 68.8446% and 103.482% | 89.5184% and 120.135%
5 | CN(C)C(=O)Cn1cc(-c2nc(C3(c4ccc(-c5cnc(N)nc5)cc4)CC3)no2)cn1 [BI 0153] | 115.747% and 91.3972% | 95.3195% and 84.6939% | 152.465% and 95.0889% | 176.713% and 106.608% | 106.576% and 110.07% | 80.0994% and 77.4652%
6 | CC(C)NC(=O)N1CC[C@H](NC2=Nc3cc(F)ccc3N(CC(F)F)c3ccc(Cl)cc32)C1 | 89.5308% and 79.3405% | 112.883% and 89.5415% | 65.8757% and 85.8718% | 77.8958% and 74.4882% | 76.3577% and 106.595% | 67.4805% and 91.0899%
7 | c1ccc2oc(-c3csc(C4CCN(Cc5nc6ncccc6[nH]5)CC4)n3)cc2c1 | 94.2166% and 105.311% | 87.22% and 87.1856% | 82.621% and 84.4067% | 113.991% and 112.807% | 71.3349% and 100.567% | 106.728% and 127.102%
8 | FC(F)c1nc2ccccc2n1-c1nc(N2CCOCC2)nc(N2CCOCC2)n1 [ZSTK-474] | 72.4296% and 85.8537% | 82.8986% and 74.2713% | 70.4686% and 75.7987% | 41.1971% and 64.5183% | 51.8719% and 106.162% | 61.9887% and 87.8149%
9 | CCOc1ccn(-c2ccc(F)cc2)c(=O)c1C(=O)Nc1ccc(Oc2ccnc(N)c2Cl)c(F)c1 [BMS-777607] | 134.256% and 110.941% | 106.617% and 115.725% | 102.993% and 102.228% | 97.5395% and 82.0651% | 96.7201% and 108.61% | 116.766% and 115.578%
10 | CN(C)C(=O)Cn1cc(-c2ccc(-c3nnc4ccccn34)cc2)cn1 | 108.728% and 107.596% | 93.8353% and 96.1497% | 166.343% and 115.942% | 81.4375% and 98.5321% | 116.057% and 113.952% | 85.0591% and 113.728%
11 | CNC(=N)NCCC[C@H](NC(=O)[C@H](CC(C)C)NC(=O)NNC(=O)[C@H](Cc1ccccc1)NC(=O)[C@H](CO)NC(=O)[C@H](CC(N)=O)NC(=O)[C@@H](Cc1ccncc1)NC(=O)[C@H](N)Cc1ccc(O)cc1)C(=O)N[C@@H](Cc1ccccc1)C(N)=O [KISS1-305] (H-[dY][d4Pal]NSF[azaGly]L[Arg(Me)]F-NH2) | 121.353% and 98.3829% | 105.015% and 111.735% | 111.929% and 98.6727% | 102.809% and 106.608% | 103.915% and 128.337% | 108.799% and 104.471%
